Laboratory results published in patent publication US20120213766A1, “Anticancer Compounds from Vernonia Guineensis” (priority 2011, published 2012).

Experiments:
[1] = tested on: Breast cancer cell line MCF-7; assay: Cell proliferation assay (WST-1, 72 h); type: cell-based; conditions: Homo sapiens, MCF7, Breast MCF-7, average of two runs
Procedure: (§1) Breast cancer cells lines MDA-MD-231 and MCF-7, colon cancer cell line HCT-116, Leukaemia cell line HL-60, lung cancer cell line A549, melanoma cancer cell line A375, ovarian cancer cell line OVCAR3 and prostate cancer cell line PC-3 were treated with Compound A (Kuminol) and Compound B (Vernoginin) to determine the effects of the molecules on the proliferation of each cell line.
(§2) Established protocol was used to assay the anti-proliferation effects of these compounds against selected cancer cell lines. Each cell line is grown in RPMI/10% FBS/1% glutamine. On the day the experiment is initiated, cells are trypsinized and plated into 96 well plates in 50 ul of media. Compound is added approximately 18 hours after plating. Cells are plated at a density so that 72 hours post drug addition, the cells are in log phase (500-2000 cells/well). The compounds are solubilized in DMSO at a concentration of 100 mM, aliquoted and stored at −20^C. On the day of drug addition, the compounds are removed from the freezer and serially diluted in DMSO to concentrations as low as 100 nM. The compounds are then diluted 1:1000 into growth media (this is 2× the final concentration) including a DMSO alone control. 50 ul of media/compound is added to each well. The cells are allowed to proliferate for 72 hours. The experiment is terminated using WST-1 (Roche) and absorbance is read at 450 nm/690 nm IC50s are calculated in GraphPad Prism converting all values to percentage of control cell growth. Each cell line is run in duplicate and the average of the two runs is the calculated IC50 of each compound.

[2] = tested on: Breast cancer cell line MDA-MB-231; assay: Cell proliferation assay (WST-1, 72 h); type: cell-based; conditions: Homo sapiens, Breast MDA-MB-231, average of two runs
Procedure: as §1, §2

[3] = tested on: Leukaemia cell line HL-60; assay: Cell proliferation assay (WST-1, 72 h); type: cell-based; conditions: Homo sapiens, Leukaemia HL-60, average of two runs
Procedure: as §1, §2

[4] = tested on: colon cancer cell line HCT-116; assay: Cell proliferation assay (WST-1, 72 h); type: cell-based; conditions: Homo sapiens, Colon HCT-116, average of two runs
Procedure: as §1, §2

[5] = tested on: lung cancer cell line A549; assay: Cell proliferation assay (WST-1, 72 h); type: cell-based; conditions: Homo sapiens, average of two runs
Procedure: as §1, §2

[6] = tested on: melanoma cancer cell line A375; assay: Cell proliferation assay (WST-1, 72 h); type: cell-based; conditions: A-375, Human melanoma A375, average of two runs
Procedure: as §1, §2

[7] = tested on: ovarian cancer cell line OVCAR3; assay: Cell proliferation assay (WST-1, 72 h); type: cell-based; conditions: Homo sapiens, OVCAR-3, average of two runs
Procedure: as §1, §2

[8] = tested on: prostate cancer cell line PC-3; assay: Cell proliferation assay (WST-1, 72 h); type: cell-based; conditions: Prostate PC-3, average of two runs
Procedure: as §1, §2

[9] = tested on: prostate cancer, human melanoma, breast cancer and others; assay: Anticancer screen, in vitro cell proliferation assay (MTT); type: cell-based
Text: The extracts obtained as described above were fractionated by absorbing onto celite and then extracting with increasing polarities of ethyl acetate in hexane. Each fraction obtained was evaporated in-vacuo to remove the solvent and monitored by thin layer chromatography (TLC). […] The dried residue of each fraction was used in the anticancer assay to determine effect on cell proliferation. The active fraction was subjected to dry column chromatography (DCC) using normal phase silica gel activated for visualization with UV 254. This procedure led to the isolation of compounds of Formula I in pure form. The Compound A (Kuminol) and the other fractions obtained were further subjected to anticancer activity screening.
Further purification of second active fraction by use of Waters Sep Pak flash chromatography yielded compounds of the Formula II. Compound B (Vernoginin) inhibited prostate cancer, human melanoma, breast cancer and others in the in vitro cell proliferation assay.
The anticancer screen is based on the highly sensitive 3-(4,5-dimethylthiazol-2-yl)-2, S-diphenyl tetrazolium bromide (MTT) assay. […]
The anticancer activity of the extract obtained as described above was confirmed using the highly proliferative B16 cell line. […] Each of the fractions obtained was evaporated in-vacuo to remove the solvent and monitored by thin layer chromatography (TLC). […]

[10] = tested on: human leukaemia cell line HL-60; assay: Apoptosis determination (Annexin V and propidium iodide, flow cytometry); type: cell-based; conditions: 1x, 10x and 50x IC50, 0-24 h
Procedure: The apoptotic effects of Kuminol (Compound A) and Vernoginin (Compound B) against the human leukaemia cell line HL-60 was determined. Annexin V and Propidium Iodide assay were carried out to determine whether Kuminol and Vernoginin have effect on cell cycle and induction of apoptosis in cancer cells. Cell death can result from either necrosis or apoptosis (programmed cell death).
The human leukaemia cell line HL60 were plated in RPMI1640 at 4×10^6 (2×10^5 cells/ml) and treated with 1×IC50, 10×IC50 and 50×IC50 Kuminol and Vernoginin. For cell cycle, 2 ml of the treated cells were stained with propidium iodide as per the manufactures instruction, aliquots (2 ml) of cells were removed and fixed at 3, 6, 24, 48 and 72 hours. For apoptosis, 2 ml aliquots of cells were removed at 0, 3, 6 and 24 hours and were stained with Annexin V FITC as per the manufacturer's instructions. The presence of apoptosis and cell cycle changes were detected using a Cytomics 500 Beckman Coulter Flow Cytometer (Coulter, Inc. Hialeah, Fla., USA

B16 tumors = assay: In vivo antitumor activity; conditions: B16 tumors in C57 mice; FIG. 5

| SMILES | IC50 [1] | IC50 [2] | IC50 [3] | IC50 [4] | IC50 [5] | IC50 [6] | IC50 [7] | IC50 [8] | growth inhibition in anticancer assay (in words) [9] | induction of apoptosis (in words) [10] | suppression of tumors (in words) (B16 tumors) |
| --- | --- | --- | --- | --- | --- | --- | --- | --- | --- | --- | --- |
| C=C1COC(O)/C(C(O/C=C(\C)C=O)C(=C)C(=O)O)=C\CCCC(O)C1=O (centres unmarked) [Kuminol, 2-[(2,8-Dihydroxy-10-methylene-9-oxo-oxacycloundec-3-en-3-yl)-(2-methyl-3-oxo-propenyloxy)-methyl]-acrylic acid] | 670 ± 320 nM | 1010 ± 200 nM | 1550 ± 470 nM | 450 ± 7 nM | 2040 ± 1040 nM | 350 ± 40 nM | 740 ± 310 nM | 1000 ± 260 nM | exhibited growth inhibition | induce apoptosis | suppression effects |
| C=CC(C)(CC(O)C(O)C(=C)C=O)C(O)C(C(=C)C(C)=O)C(=C)C(=O)CCO (centres unmarked) [Vernoginin, 3,4,7,12,-Tetrahydroxy-6-methyl-2,9-dimethylene-8-(1-methylene-2-oxo-propyl)-10-oxo-6-vinyl-dodecanal] | 1560 ± 960 nM | 367 ± 30 nM | 1120 ± 750 nM | 140 ± 150 nM | 1130 ± 380 nM | 130 ± 150 nM | 480 ± 8 nM |  | inhibited | induce apoptosis |  |
